16 molecules from ChEMBL document CHEMBL3784984, “Cyclolinopeptides, cyclic peptides from flaxseed with osteoclast differentiation inhibitory activity” (Bioorg Med Chem Lett, 2016) can be followed below.

Data set [1] in a line: Cytotoxicity against ICR mouse bone marrow cells assessed as cell viability after 24 hrs by MTT assay. It is filed as cell-based. For orientation: Tetrazolium dyes change colour on reduction, which living cells bring about.
In a further data set the test system is Bone marrow cell. The data set can be described thus: Inhibition of RANKL-induced osteoclast differentiation in ICR mouse bone marrow cells after 48 hrs by TRAP assay. It is filed as functional, cell-based.

The structures appear in SMILES notation. Non-standard residues stand in square brackets, D forms with d. Residues, ends and D or L forms follow the SMILES beside them. Met(O) = CS(=O)CC[C@H](N)C(=O)O A value given as a limit tells only on which side of the number the result lay.

Regarding `CC[C@H](C)[C@@H]1NC(=O)[C@H](Cc2c[nH]c3ccccc23)NC(=O)[C@H](Cc2ccccc2)NC(=O)[C@H](Cc2ccccc2)NC(=O)[C@@H]2CCCN2C(=O)[C@H](CC(C)C)NC(=O)[C@H](CC(C)C)NC(=O)[C@H](CC[S+](C)[O-])NC1=O` (stereo not given in full) (cyclo(FFWI[Met(O)]LLP)), the Activity entry in data set [1] is “Non-toxic”. Further, in the data set on Bone marrow cell, 3.86 µM corresponded to half-maximal inhibition (IC50). The matching figures for `CC[C@H](C)[C@@H]1NC(=O)[C@H](Cc2c[nH]c3ccccc23)NC(=O)[C@H](Cc2ccccc2)NC(=O)[C@H](Cc2ccccc2)NC(=O)[C@@H]2CCCN2C(=O)[C@H](CC[S+](C)[O-])NC(=O)[C@H](CC(C)C)NC(=O)[C@H](CC[S+](C)[O-])NC1=O` (stereo not given in full) (cyclo(FFWI[Met(O)]L[Met(O)]P)): “Non-toxic” and 4.04 µM. On to `CC[C@H](C)[C@@H]1NC(=O)[C@H](C(C)C)NC(=O)[C@H](Cc2ccccc2)NC(=O)[C@H](Cc2ccccc2)NC(=O)[C@@H]2CCCN2C(=O)[C@@H]2CCCN2C(=O)[C@H]([C@@H](C)CC)NC(=O)[C@H](CC(C)C)NC(=O)[C@H](CCSC)NC1=O` (cyclo(FFVIMLIPP)), for which the Activity entry in data set [1] is “Non-toxic”. Also, inhibition with Bone marrow cell was half-maximal at 5.53 µM (IC50). In the same order, the values of `CC[C@H](C)[C@@H]1NC(=O)[C@H](Cc2c[nH]c3ccccc23)NC(=O)[C@H](Cc2ccccc2)NC(=O)[C@H](Cc2ccccc2)NC(=O)[C@@H]2CCCN2C(=O)[C@H](CC[S+](C)[O-])NC(=O)[C@H](CC(C)C)NC(=O)[C@H](CCSC)NC1=O` (stereo not given in full) (cyclo(FFWIML[Met(O)]P)) are “Non-toxic” and 4.67 µM. The matching figures for `CC[C@H](C)[C@@H]1NC(=O)[C@H](Cc2c[nH]c3ccccc23)NC(=O)[C@H](Cc2ccccc2)NC(=O)[C@H](Cc2ccccc2)NC(=O)[C@@H]2CCCN2C(=O)[C@H](CCSC)NC(=O)[C@H](CC(C)C)NC(=O)[C@H](CCSC)NC1=O` (cyclo(FFWIMLMP)): “Non-toxic” and 0.49 µM. In the case of `CC(C)C[C@@H]1NC(=O)[C@H](CC[S+](C)[O-])NC(=O)[C@H](C(C)C)NC(=O)[C@H](Cc2c[nH]c3ccccc23)NC(=O)[C@H](Cc2ccccc2)NC(=O)[C@H](Cc2ccccc2)NC(=O)[C@@H]2CCCN2C(=O)[C@H](CC[S+](C)[O-])NC1=O` (stereo not given in full) (cyclo(FFWV[Met(O)]L[Met(O)]P)), in data set [1], the Activity result was “Non-toxic”. Further, the IC50 (usually the concentration that gives 50% inhibition) with Bone marrow cell amounted to 0.58 µM. The matching figures for `CC[C@H](C)[C@@H]1NC(=O)[C@H](Cc2ccccc2)NC(=O)[C@H](CC(C)C)NC(=O)[C@@H]2CCCN2C(=O)[C@H](Cc2ccccc2)NC(=O)[C@H](C(C)C)NC(=O)[C@H](CC(C)C)NC(=O)[C@H](CC[S+](C)[O-])NC1=O` (stereo not given in full) (cyclo(FI[Met(O)]LVFPL)): “Non-toxic” and > 20 µM. The matching figures for `CC[C@H](C)[C@@H]1NC(=O)[C@H](CC(C)C)NC(=O)[C@H](Cc2ccccc2)NC(=O)[C@H](Cc2ccccc2)NC(=O)[C@@H]2CCCN2C(=O)[C@@H]2CCCN2C(=O)[C@H](C(C)C)NC(=O)[C@H](CC(C)C)NC(=O)[C@H]([C@@H](C)CC)NC1=O` [CYCLOLINOPEPTIDE A] (cyclo(FFLIILVPP)): “Non-toxic” and 12.2 µM. As for `CSCC[C@@H]1NC(=O)[C@H](C(C)C)NC(=O)[C@H](Cc2c[nH]c3ccccc23)NC(=O)[C@H](Cc2ccccc2)NC(=O)[C@H](Cc2ccccc2)NC(=O)[C@@H]2CCCN2C(=O)[C@H](CC[S+](C)[O-])NC(=O)[C@H](CC(C)C)NC1=O` (stereo not given in full) (cyclo(FFWVML[Met(O)]P)), the Activity entry in data set [1] was “Non-toxic”. Inhibition in the data set with Bone marrow cell was half-maximal at 0.47 µM (IC50). With `COc1cc(/C=C/C(=O)CC(=O)/C=C/c2ccc(O)c(OC)c2)ccc1O` [CURCUMIN], half-maximal inhibition with Bone marrow cell (IC50) was put at 7.5 µM.

Turning to `CC[C@H](C)[C@@H]1NC(=O)[C@H](C(C)C)NC(=O)[C@H](Cc2ccccc2)NC(=O)[C@H](Cc2ccccc2)NC(=O)[C@@H]2CCCN2C(=O)[C@@H]2CCCN2C(=O)[C@H]([C@@H](C)CC)NC(=O)[C@H](CC(C)C)NC(=O)[C@H](CC[S+](C)[O-])NC1=O` (stereo not given in full) (cyclo(FFVI[Met(O)]LIPP)), the Activity entry in data set [1] is “Non-toxic”. In addition, the midpoint of inhibition in the data set with Bone marrow cell, the IC50, lay at 14.9 µM.

For the molecule `CSCC[C@@H]1NC(=O)[C@H](C(C)C)NC(=O)[C@H](Cc2c[nH]c3ccccc23)NC(=O)[C@H](Cc2ccccc2)NC(=O)[C@H](Cc2ccccc2)NC(=O)[C@@H]2CCCN2C(=O)[C@H](CCSC)NC(=O)[C@H](CC(C)C)NC1=O` (cyclo(FFWVMLMP)), the Activity result in data set [1] was “Non-toxic”. In the data set with Bone marrow cell, this molecule showed an IC50 of 0.6 µM. The matching figures for `CC[C@H](C)[C@@H]1NC(=O)[C@H](Cc2c[nH]c3ccccc23)NC(=O)[C@H](Cc2ccccc2)NC(=O)[C@H](Cc2ccccc2)NC(=O)[C@@H]2CCCN2C(=O)[C@H](CCSC)NC(=O)[C@H](CC(C)C)NC(=O)[C@H](CC[S+](C)[O-])NC1=O` (stereo not given in full) (cyclo(FFWI[Met(O)]LMP)): “Non-toxic” and 0.83 µM. For the molecule `CC[C@H](C)[C@@H]1NC(=O)[C@H](Cc2ccccc2)NC(=O)[C@H](CC(C)C)NC(=O)[C@@H]2CCCN2C(=O)[C@H](Cc2ccccc2)NC(=O)[C@H](C(C)C)NC(=O)[C@H](CC(C)C)NC(=O)[C@H](CCSC)NC1=O` (cyclo(FIMLVFPL)), the Activity entry in data set [1] is recorded as “Non-toxic”. In addition, the midpoint of inhibition with Bone marrow cell, the IC50, lay at 15.3 µM. In the same order, the values of `CSCC[C@@H]1NC(=O)[C@H](CC(C)C)NC(=O)[C@H](CC[S+](C)[O-])NC(=O)[C@H](C(C)C)NC(=O)[C@H](Cc2c[nH]c3ccccc23)NC(=O)[C@H](Cc2ccccc2)NC(=O)[C@H](Cc2ccccc2)NC(=O)[C@@H]2CCCN2C1=O` (stereo not given in full) (cyclo(FFWV[Met(O)]LMP)) are “Non-toxic” and 0.59 µM.

In the data set with Bone marrow cell, `CC(C)Oc1ccc2c(=O)c(-c3ccccc3)coc2c1` [IPRIFLAVONE] had an IC50 of 17.2 µM.
